Results taken from patent US20230085307A1, “PYRIDAZINONE COMPOUND AND HERBICIDE” (NISSAN CHEMICAL CORPORATION, priority 2019, published 2023).

Columns and labels:
oval-leafed pondweed = test: Test Example 1: herbicidal activity, application before weed generation under submerged conditions (Table 16, symbol C); type: in vivo, oval-leafed pondweed (Monochoria vaginalis); details: amount of applied herbicide 320 g/ha
Method in brief: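 Alluvial soil was flooded to 4 cm depth, weed seeds were sown mixed and 2.5-leaf rice seedlings were transplanted. On sowing day, the compound's emulsion, diluted in water to a set dose, was applied to the water surface. Plants grew at 25–30 °C and were scored 0–5 after three weeks.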

late watergrass = test: Test Example 2: herbicidal activity, application during weed generation under submerged conditions (Table 17, symbol A); type: in vivo, late watergrass (Echinochloa oryzicola); details: AAH 320 g/ha; application during weed generation, submerged conditions
Method in brief: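 Herbicide emulsion, diluted with water to the chosen amount, is applied onto 4 cm floodwater over alluvial soil where the weeds were co-sown and raised at 25–30° C. Application timing: 1–2 leaves. Assessment: three weeks afterwards.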

barnyard grass = test: Test Example 3: herbicidal effect by foliage application, Wagner pot (Table 18, symbol H); type: in vivo, barnyard grass (Echinochloa crus-galli); details: 320 g/ha
Method in brief: (§1)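 Plants were sown in alluvial soil held under 0.1–0.5 cm standing water and grown 14 days in a greenhouse at 25–30 °C. An emulsifiable formulation, water-diluted to the set dose, was then sprayed onto the foliage, and effects were scored three weeks later using previously defined criteria.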

Chinese sprangletop = test: Test Example 3: herbicidal effect by foliage application, Wagner pot (Table 18, symbol D); type: in vivo, chinese sprangletop (Leptochloa chinensis); details: 320 g/ha
Method in brief: as §1

rice flat sedge = test: Test Example 3: herbicidal effect by foliage application, Wagner pot (Table 18, symbol E); type: in vivo, rice flat sedge (Cyperus iria); details: 320 g/ha
Method in brief: as §1

green foxtail = test: Test Example 4: herbicidal effect by soil treatment (Table 19, symbol G); type: in vivo, green foxtail (Setaria viridis); details: amount of applied herbicide 320 g/ha
Method in brief: (§2)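 Herbicidal effect was rated 3 weeks after treatment, using the scoring criteria of an earlier test. The compound, formulated as an emulsion and diluted in water to a set herbicide amount, had been sprayed uniformly on soil over freshly sown seeds. Growth took place in a greenhouse at 25° C. to 30° C.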

windgrass [1] = test: Test Example 4: herbicidal effect by soil treatment (Table 19, symbol L); type: in vivo, windgrass (Apera spica-venti); details: amount of applied herbicide 320 g/ha
Method in brief: as §2

velvetleaf [2] = test: Test Example 4: herbicidal effect by soil treatment (Table 19, symbol M); type: in vivo, velvetleaf (Abutilon theophrasti); details: amount of applied herbicide 320 g/ha
Method in brief: as §2

lambsquarters [3] = test: Test Example 4: herbicidal effect by soil treatment (Table 19, symbol O); type: in vivo, lambsquarters (Chenopodium album); details: amount of applied herbicide 320 g/ha
Method in brief: as §2

chickweed = test: Test Example 4: herbicidal effect by soil treatment (Table 19, symbol P); type: in vivo, common chickweed (Stellaria media); details: amount of applied herbicide 320 g/ha
Method in brief: as §2

persian speedwell [4] = test: Test Example 4: herbicidal effect by soil treatment (Table 19, symbol R); type: in vivo, Persian speedwell (Veronica persica); details: amount of applied herbicide 320 g/ha
Method in brief: as §2

southern crabgrass = test: Test Example 5: herbicidal effect by foliage application, plastic box (Table 20, symbol F); type: in vivo, southern crabgrass (Digitaria ciliaris); details: foliage application, 320 g/ha, three weeks after application
Method in brief: (§3)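 Foliar spray test: emulsion formulation diluted in water to a set application rate, sprayed onto 14-day-old plants raised in diluvial soil at 25° C to 30° C under glass. Both herbicidal effect and crop effect rated visually three weeks later.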

Italian ryegrass = test: Test Example 5: herbicidal effect by foliage application, plastic box (Table 20, symbol K); type: in vivo, Italian ryegrass (Lolium multiflorum); details: foliage application, 320 g/ha, three weeks after application
Method in brief: as §3

windgrass [5] = test: Test Example 5: herbicidal effect by foliage application, plastic box (Table 20, symbol L); type: in vivo, windgrass (Apera spica-venti); details: foliage application, 320 g/ha, three weeks after application
Method in brief: as §3

velvetleaf [6] = test: Test Example 5: herbicidal effect by foliage application, plastic box (Table 20, symbol M); type: in vivo, velvetleaf (Abutilon theophrasti); details: foliage application, 320 g/ha, three weeks after application
Method in brief: as §3

lambsquarters [7] = test: Test Example 5: herbicidal effect by foliage application, plastic box (Table 20, symbol O); type: in vivo, lambsquarters (Chenopodium album); details: foliage application, 320 g/ha, three weeks after application
Method in brief: as §3

persian speedwell [8] = test: Test Example 5: herbicidal effect by foliage application, plastic box (Table 20, symbol R); type: in vivo, Persian speedwell (Veronica persica); details: foliage application, 320 g/ha, three weeks after application
Method in brief: as §3

Compound	Herbicidal effect, C: oval-leafed pondweed (oval-leafed pondweed)	herbicidal effect rating, A: late watergrass (late watergrass)	herbicidal effect on barnyard grass (H) (barnyard grass)	herbicidal effect on Chinese sprangletop (D) (Chinese sprangletop)	herbicidal effect on rice flat sedge (E) (rice flat sedge)	G: green foxtail, herbicidal effect grade (green foxtail)	L: windgrass, herbicidal effect grade (windgrass [1])	M: velvetleaf, herbicidal effect grade (velvetleaf [2])	O: lambsquarters, herbicidal effect grade (lambsquarters [3])	P: chickweed, herbicidal effect grade (chickweed)	R: persian speedwell, herbicidal effect grade (persian speedwell [4])	F: southern crabgrass, herbicidal effect grade (southern crabgrass)	K: Italian ryegrass, herbicidal effect grade (Italian ryegrass)	L: windgrass, herbicidal effect grade (windgrass [5])	M: velvetleaf, herbicidal effect grade (velvetleaf [6])	O: lambsquarters, herbicidal effect grade (lambsquarters [7])	R: persian speedwell, herbicidal effect grade (persian speedwell [8])
COc1ccccc1-c1sc2cc(OC(F)F)ccc2c1-c1c(O)c(C)nn(C)c1=O [3-113]	2 (Herbicidal rate of 20% or more and less than 40%)	0 (Herbicidal rate of 5% or less (almost no effect))	5 (Herbicidal rate of 90% or more (almost completely withered))	3 (Herbicidal rate of 40% or more and less than 70%)	5 (Herbicidal rate of 90% or more (almost completely withered))	5 (Herbicidal rate of 90% or more (almost completely withered))	5 (Herbicidal rate of 90% or more (almost completely withered))	4 (Herbicidal rate of 70% or more and less than 90%)	5 (Herbicidal rate of 90% or more (almost completely withered))	5 (Herbicidal rate of 90% or more (almost completely withered))	5 (Herbicidal rate of 90% or more (almost completely withered))	1 (Herbicidal rate of 5% or more and less than 20%)	5 (Herbicidal rate of 90% or more (almost completely withered))	5 (Herbicidal rate of 90% or more (almost completely withered))	5 (Herbicidal rate of 90% or more (almost completely withered))	5 (Herbicidal rate of 90% or more (almost completely withered))	5 (Herbicidal rate of 90% or more (almost completely withered))
COc1ccccc1-c1sc2cc(OCc3ccccc3)ccc2c1-c1c(O)c(C)nn(C)c1=O [3-118]	5 (Herbicidal rate of 90% or more (almost completely withered))	1 (Herbicidal rate of 5% or more and less than 20%)	4 (Herbicidal rate of 70% or more and less than 90%)	0 (Herbicidal rate of 5% or less (almost no effect))	5 (Herbicidal rate of 90% or more (almost completely withered))	0 (Herbicidal rate of 5% or less (almost no effect))	3 (Herbicidal rate of 40% or more and less than 70%)	0 (Herbicidal rate of 5% or less (almost no effect))	1 (Herbicidal rate of 5% or more and less than 20%)	0 (Herbicidal rate of 5% or less (almost no effect))	5 (Herbicidal rate of 90% or more (almost completely withered))	4 (Herbicidal rate of 70% or more and less than 90%)	5 (Herbicidal rate of 90% or more (almost completely withered))	5 (Herbicidal rate of 90% or more (almost completely withered))	2 (Herbicidal rate of 20% or more and less than 40%)	5 (Herbicidal rate of 90% or more (almost completely withered))	5 (Herbicidal rate of 90% or more (almost completely withered))
COCCOc1ccc2c(-c3c(O)c(C)nn(C)c3=O)c(-c3ccccc3OC)sc2c1 [3-121]	5 (Herbicidal rate of 90% or more (almost completely withered))	3 (Herbicidal rate of 40% or more and less than 70%)	5 (Herbicidal rate of 90% or more (almost completely withered))	4 (Herbicidal rate of 70% or more and less than 90%)	5 (Herbicidal rate of 90% or more (almost completely withered))	5 (Herbicidal rate of 90% or more (almost completely withered))	5 (Herbicidal rate of 90% or more (almost completely withered))	5 (Herbicidal rate of 90% or more (almost completely withered))	5 (Herbicidal rate of 90% or more (almost completely withered))	5 (Herbicidal rate of 90% or more (almost completely withered))	5 (Herbicidal rate of 90% or more (almost completely withered))	5 (Herbicidal rate of 90% or more (almost completely withered))	5 (Herbicidal rate of 90% or more (almost completely withered))	5 (Herbicidal rate of 90% or more (almost completely withered))	5 (Herbicidal rate of 90% or more (almost completely withered))	5 (Herbicidal rate of 90% or more (almost completely withered))	5 (Herbicidal rate of 90% or more (almost completely withered))
COc1ccccc1-c1sc2cc(OCC3CC3)ccc2c1-c1c(O)c(C)nn(C)c1=O [3-129]	5 (Herbicidal rate of 90% or more (almost completely withered))	3 (Herbicidal rate of 40% or more and less than 70%)	5 (Herbicidal rate of 90% or more (almost completely withered))	4 (Herbicidal rate of 70% or more and less than 90%)	5 (Herbicidal rate of 90% or more (almost completely withered))	5 (Herbicidal rate of 90% or more (almost completely withered))	5 (Herbicidal rate of 90% or more (almost completely withered))	0 (Herbicidal rate of 5% or less (almost no effect))	5 (Herbicidal rate of 90% or more (almost completely withered))	3 (Herbicidal rate of 40% or more and less than 70%)	4 (Herbicidal rate of 70% or more and less than 90%)	5 (Herbicidal rate of 90% or more (almost completely withered))	5 (Herbicidal rate of 90% or more (almost completely withered))	5 (Herbicidal rate of 90% or more (almost completely withered))	4 (Herbicidal rate of 70% or more and less than 90%)	4 (Herbicidal rate of 70% or more and less than 90%)	5 (Herbicidal rate of 90% or more (almost completely withered))
